One experiment deals with hepatitis B virus (HBV). Description: Antiviral activity against hepatitis B virus (HBV), viral DNA synthesis inhibition in HB611 cells. Conditions: 360 h, drug concentration required for 50% inhibition of viral DNA synthesis, densitometry, read-out: Anti-HBV activity ID50. It counts as cell-based. The method, then: Antiviral activity against hepatitis B virus (HBV) which is a DNA virus was tested by the following method.
The test was done by using a cell line, HB611, that was established by transfection and continuously produces HBV-like particles [Proc. Natl. Acad. Sci. USA, 84, 444-449, 1987]. HB611 cells were maintained in Dulbecco's modified Eagle medium (Gibco) supplemented with fetal bovine serum (Gibco), 100 μg/ml of streptomycin, […] of benzyl penicillin (Gibco) and 200 μg/ml of geneticin (Gibco) at 37° C. in 5% CO2 -95% air.
The cells were seeded in 24-well plate (Corning) at a density of 3×10^4 cells/well, using 1.0 ml of the medium. After 2 days of incubation, the medium was replaced with the same medium containing the test compound. The cells were incubated for a further 15 days, during which time the medium containing the drug was exchanged every three days. […]
The results which was autoradiographed were analyzed using a densitometric analyzer (Shimadzu, Chromatoscana S930).
To quantitatively evaluate the inhibitory activity of the compounds, there were measured the band areas S, D, D2 (S, D1 and D2 represent intracellular free HBV DNA derived from replicative intermediates) and I (represents chromosomally integrated HBV DNA) by densitometric analyzer, and calculated the inhibition percentage as follows: [formula] […]

Experiment [1] relates to Human Immonodeficiency Virus (HIV). Put plainly: Antiviral activity against HIV (HTLV-IIIB strain) in MT-4 cells, HIV antigen-positive cells by indirect immunofluorescence. It counts as cell-based, HTLV-IIIB strain of HIV. The note with it: Human immunodeficiency virus 1, MT4, 96 h, 4 days. The procedure: Antiviral activity against Human Immonodeficiency Virus (HIV) belonging to RNA virus was examined by the following method: MT-4 cells […] in 0.5 ml of RPMI 1640 culture medium were seeded into 48-well plates, and 50 μl of test compounds were added to various concentrations. The cells were incubated at 37° C. for 2 hours in 5% (v/v) carbondioxide incubator. Then, 50 μl of the HTLV-IIIB strain of HIV (2.5×10^5 to 5×10^5 PFU/ml) was inoculated onto the cells. After 4 days, a part of the cells were applied onto a slide glass and immobilized with acetone. The percentages of HIV antigen-positive MT-4 cells were determined by indirect immunofluorescence assay. As the primary antibody, serum of AIDS patients was used. As the secondary antibody, FITC-labelled anti-human IgG was used.

For experiment [2], the system named is Herpes simplex virus (HSV-1). Put plainly: Antiviral activity against Herpes simplex virus (HSV-1), CPE inhibition in Vero cells (Neutral Red). It counts as cell-based. Conditions: Human alphaherpesvirus 1, 50% inhibition of CPE, about 72 hours. The method, then: Antiviral activity against Herpes simplex virus (HSV-1) which is a DNA virus was tested by the following method.
Vero cells (originated from kidney cells of African Green Monkey) were cultured in MEM medium supplemented with 10% fetal bovine serum. One hundred μl of cell suspension (200,000 cells/ml) was plated into 96 wells plates (COSTAR) and cultured for 24 hours so that the culture became confluent. The medium was drawn, and cells were infected with HSV-1 virus for one hour. After drawing the virus fluid, cells were cultured for about 72 hours in a fresh medium containing test samples. The survived cells were stained with Neutral Red solution and absorbance at a wavelength of 546 nm (A546) was measured to evaluate the cytopathic effect (CPE).
CPE inhibition (%) was calculated as follows: [formula] Sample concentration required for 50% inhibition of the CPE was calculated as IC50 (μg/ml).

Values after ≈ are worked out from the molar mass of the structure shown.

The text below walks through data of patent US5374625A, “Adenine and guanine derivatives for the treatment of hepatitis virus infections” (priority 1990, dated 1994).

As for `Nc1ncnc2c1ncn2[C@@H]1CC[C@H](CO)[C@H]1CO` [Example 5, 9-[(1R,2R,3S)-2,3-Bis(hydroxymethyl)-1-cyclopentyl]-adenine], the IC50 in the experiment on hepatitis B virus (HBV) was 0.24 µg/mL (≈ 0.912 µM).
`Nc1ncnc2c1ncn2[C@@H]1C[C@H](CO)[C@@H](CO)C[C@H]1O` [Example 13, 9-[(1R,2R,4S,5S)-4,5-Bis(hydroxymethyl)-2-hydroxycyclohexyl]-adenine] returned an IC50 in experiment [1] of 55 µg/mL (≈ 188 µM).
For the compound `Nc1ncnc2c1ncn2[C@H]1CC[C@H](CO)[C@@H](CO)C1` [Example 16, 9-[(1S,3S,4S)-3,4-Bis(hydroxymethyl)-cyclohexyl]-adenine], in experiment [1], the IC50 was determined as 4.5 µg/mL (≈ 16.2 µM).
In the case of `Nc1nc2c(ncn2[C@@H]2C[C@H](CO)[C@@H](CO)C[C@H]2O)c(=O)[nH]1` [Example 18, 9-[(1R,2R,4S,5S)-4,5-Bis(hydroxymethyl)-2-hydroxycyclohexyl]-guanine], the IC50 in experiment [2] stood at 45.9 µg/mL (≈ 148 µM).
For the compound `Nc1nc2c(ncn2[C@H]2CC[C@H](CO)[C@@H](CO)C2)c(=O)[nH]1` [Example 21, 9-[(1S,3S,4S)-3,4-Bis(hydroxymethyl)-cyclohexyl]-guanine], the IC50 in experiment [2] was determined as 2.77 µg/mL (≈ 9.44 µM).
